Measurements from US8916183B2, “Pesticidal compositions and processes related thereto” (priority 2012, dated 2014).

Columns and labels:
Type in all cases: in vivo
[1] = system: Beet Armyworm (BAW) (Spodoptera exigua); assay: Bioassay on beet armyworm (BAW), 128-well diet tray assay; details: Spodoptera exigua; beet armyworm, 50 μg/cm^2; read-out: % Mortality BAW 50 μg/cm^2
[2] = system: Corn Earworm (CEW) (Helicoverpa zea); assay: Bioassay on corn earworm (CEW), 128-well diet tray assay; details: Helicoverpa zea; corn earworm, 50 μg/cm^2; read-out: % Mortality CEW 50 μg/cm^2
Procedure, shortened: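 Activity was scored as percent larval mortality per well, averaged across eight wells and reported on a rating scale. Diet trays (128-well) were kept at 25° C with 14:10 light-dark for five to seven days.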

[3] = system: Green Peach Aphid (GPA) (Myzus persicae); assay: Bioassay on green peach aphid (GPA), foliar spray on cabbage seedlings; details: green peach aphid, 200 ppm, read-out: % Mortality GPA 200 ppm
Procedure, shortened: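 Cabbage seedlings (2-3 true leaves), each infested a day earlier with 20-50 wingless adult and nymph GPA, were sprayed on both leaf sides to runoff, four pots per treatment. Corrected % control was calculated against solvent-check plants.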

Compound	mortality at 50 µg/cm2 [1]	mortality at 50 µg/cm2 [2]	mortality at 200 ppm [3]
CC(C)=Cc1ccccc1N1CCS/C1=N\N=C\c1ccc(-c2ncn(-c3ccc(OC(F)(F)F)cc3)n2)cc1 [Compound 151C]	50 to 100%	50 to 100%	0 to 80%
Cc1ccccc1N1/C(=N/N=C/c2ccc(-c3ncn(-c4ccc(OC(F)(F)F)cc4)n3)cc2)SCC1C (stereo not drawn) [Compound 154C]	50 to 100%	50 to 100%	0 to 80%
CCc1cccc(C)c1N1/C(=N/N=C/c2ccc(-c3ncn(-c4ccc(OC(F)(F)F)cc4)n3)cc2)SCC1C (stereo not drawn) [Compound 156C]	50 to 100%	50 to 100%	0 to 80%
CC1CS/C(=N\N=C\c2ccc(-c3ncn(-c4ccc(OC(F)(F)F)cc4)n3)cc2)N1c1c(Cl)cccc1Cl (stereo not drawn) [Compound 157C]	50 to 100%	50 to 100%	0 to 80%
Cc1cccc(Cl)c1N1/C(=N/N=C/c2ccc(-c3ncn(-c4ccc(OC(F)(F)F)cc4)n3)cc2)SCC1C (stereo not drawn) [Compound 158C]	50 to 100%	50 to 100%	0 to 80%
CC1CS/C(=N\N=C\c2ccc(-c3ncn(-c4ccc(OC(F)(F)F)cc4)n3)cc2)N1c1ccccc1OC(F)(F)F (stereo not drawn) [Compound 168C]	50 to 100%	50 to 100%	0%
COc1cc(C)c(-n2c(C)cs/c2=N\N=C\c2ccc(-c3ncn(-c4ccc(OC(F)(F)F)cc4)n3)cc2)c(C)c1 [Compound 172C]	50 to 100%	50 to 100%	0%
Cc1ccccc1-n1c(C)cs/c1=N\N=C\c1ccc(-c2ncn(-c3ccc(OC(F)(F)F)cc3)n2)cc1 [Compound 173C]	50 to 100%	50 to 100%	0%
Cc1cccc(Cl)c1-n1c(C)cs/c1=N\N=C\c1ccc(-c2ncn(-c3ccc(OC(F)(F)F)cc3)n2)cc1 [Compound 174C]	50 to 100%	50 to 100%	0 to 80%
Cc1cccc(C)c1-n1c(C)cs/c1=N\N=C\c1ccc(-c2ncn(-c3ccc(OC(F)(F)F)cc3)n2)cc1 [Compound 175C]	50 to 100%	50 to 100%	0%
CC(C)c1ccccc1N1CCCS/C1=N\N=C\c1ccc(-c2ncn(-c3ccc(OC(F)(F)F)cc3)n2)cc1 [Compound 177C]	50 to 100%	50 to 100%	0%
CC(C)c1ccccc1N1CCCS/C1=N\N=C\c1ccc(-c2ncn(-c3ccc(C(F)(F)F)cc3)n2)cc1 [Compound 179C]	50 to 100%	50 to 100%	0%
CCc1cccc(C)c1N1CCCS/C1=N\N=C\c1ccc(-c2ncn(-c3ccc(OC(F)(F)F)cc3)n2)cc1 [Compound 180C]	50 to 100%	50 to 100%	0 to 80%
COc1cc(C)c(N2CCCS/C2=N\N=C\c2ccc(-c3ncn(-c4ccc(OC(F)(F)F)cc4)n3)cc2)c(C)c1 [Compound 181C]	50 to 100%	50 to 100%	0 to 80%
Cc1cccc(C)c1N1CCCS/C1=N\N=C\c1ccc(-c2ncn(-c3ccc(OC(F)(F)F)cc3)n2)cc1 [Compound 182C]	50 to 100%	50 to 100%	0 to 80%
CCC(C)c1ccccc1N1CCCS/C1=N\N=C\c1ccc(-c2ncn(-c3ccc(OC(F)(F)F)cc3)n2)cc1 (stereo not drawn) [Compound 183C]	50 to 100%	50 to 100%	0%
Cc1cc(C)c(N2CCCS/C2=N\N=C\c2ccc(-c3ncn(-c4ccc(OC(F)(F)F)cc4)n3)cc2)c(C)c1 [Compound 184C]	50 to 100%	50 to 100%	0%
